Assay results as given in BigSolDB 2.1.

CCOC(=O)OC1=C(c2cc(C)ccc2C)C(=O)NC12CCC(OC)CC2 (stereo unspecified)
solubility (mole fraction)
Conditions	278.15 K	283.15 K	288.15 K	293.15 K	298.15 K	303.15 K	308.15 K	313.15 K	318.15 K
in acetone	0.012	0.0151	0.0183	0.0221	0.0267	0.0323	0.0392	0.0472	0.0571
in ethanol	0.00319	0.00386	0.00504	0.00624	0.008	0.0103	0.0132	0.0169	0.0219
in isopropanol	0.00177	0.00232	0.0031	0.00415	0.00543	0.00711	0.00939	0.0125	0.0165
in methanol	0.00534	0.00669	0.00803	0.01	0.0127	0.0159	0.0202	0.0257	0.0321
